Tested on in the first data set: not given
Assay: not given
The molecule `CN(C)CC(=O)N(C)c1ccc(NC(=O)[C@H]2C[C@@H](O)CN2C(=O)Nc2ccc(Cl)cc2)cc1` [Compound A1, 1-N-(4-Chlorophenyl)-2-N-{4-[(2-dimethylaminoethanoyl)methylamino]-phenyl}-(2R,4R)-4-hydroxypyrrolidine-1,2-dicarboxamide] returned a melting point of 95 °C. Same read-out and setting: in the case of `CCNCC(=O)N(C)c1ccc(NC(=O)[C@H]2C[C@@H](O)CN2C(=O)Nc2ccc(Cl)cc2)cc1` [Compound A3, 1-N-(4-Chlorophenyl)-2-N-{4-[(2-ethylaminoethanoyl)methylamino]-phenyl}-(2R,4R)-4-hydroxypyrrolidine-1,2-dicarboxamide] it was 121 °C. `COCC(=O)N(C)c1ccc(NC(=O)[C@H]2C[C@@H](O)CN2C(=O)Nc2ccc(Cl)cc2)cc1` [Compound A4, 1-N-(4-Chlorophenyl)-2-N-{4-[(2-methoxyethanoyl)methylamino]phenyl}-(2R,4R)-4-hydroxypyrrolidine-1,2-dicarboxamide] displayed a melting point of 84 °C.

For a further data set, the target named is FXa (Homo sapiens, UniProt P00742). Nature of the data set: Inhibition of factor Xa (FXa-IC50). The format is biochemical. From the text: The inhibition of factor Xa by the compounds according to the invention and the measurement of the anticoagulant and antithrombotic activity can be determined by conventional in-vitro or in-vivo methods. A suitable method is described, for example, by J. Hauptmann et al. in Thrombosis and Haemostasis 1990, 63, 220-223.
Sequence of FXa (P00742 235-488 limits assumed): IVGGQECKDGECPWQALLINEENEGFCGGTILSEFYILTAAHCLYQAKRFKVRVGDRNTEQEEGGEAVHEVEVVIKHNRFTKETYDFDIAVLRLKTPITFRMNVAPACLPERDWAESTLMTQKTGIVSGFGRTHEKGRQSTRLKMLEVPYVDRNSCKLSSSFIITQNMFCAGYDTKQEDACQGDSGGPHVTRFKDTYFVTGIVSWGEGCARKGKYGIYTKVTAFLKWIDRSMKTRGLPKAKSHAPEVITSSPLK
Sequence of FXa (P00742 41-179 limits assumed): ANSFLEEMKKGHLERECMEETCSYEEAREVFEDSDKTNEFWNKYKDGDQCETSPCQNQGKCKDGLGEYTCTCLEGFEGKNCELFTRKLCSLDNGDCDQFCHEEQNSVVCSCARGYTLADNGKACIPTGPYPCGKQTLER
The inhibition of factor Xa can be measured, for example by the method of T. Hara et al. in Thromb. Haemostas. 1994, 71, 314-319.
On to `CN(C(=O)CN1CCOCC1)c1ccc(NC(=O)[C@H]2C[C@@H](O)CN2C(=O)Nc2ccc(Cl)cc2)cc1` [Compound A1-1, 1-N-(4-chlorophenyl)-2-N-{4-[(2-(morpholin-4-yl)ethanoyl)methylamino]phenyl}-(2R,4R)-4-hydroxypyrrolidine-1,2-dicarboxamide], for which the IC50 stood at 54 nM. Still for that read-out and setting: in the case of `CN(C(=O)CN1CCC(O)CC1)c1ccc(NC(=O)[C@H]2C[C@@H](O)CN2C(=O)Nc2ccc(Cl)cc2)cc1` [Compound A1-2, 1-N-(4-chlorophenyl)-2-N-{4-[(2-(4-hydroxypiperidin-1-yl)ethanoyl)-methylamino]phenyl}-(2R,4R)-4-hydroxypyrrolidine-1,2-dicarboxamide] it was 37 nM; in that of `CCNCC(=O)N(C)c1ccc(NC(=O)[C@H]2C[C@@H](O)CN2C(=O)Nc2ccc(Cl)cc2)cc1` [Compound A3, 1-N-(4-Chlorophenyl)-2-N-{4-[(2-ethylaminoethanoyl)methylamino]-phenyl}-(2R,4R)-4-hydroxypyrrolidine-1,2-dicarboxamide], 17 nM.

The record behind these values is US7732481B2, “Prolinylarylacetamides” (Merck Patent Gesellschaft mit beschrankter Haftung, priority 2003, dated 2010).
